Measured values as given in patent publication US6214615A (The United States of America as represented by the …, priority 1996, dated 2001).

Key:
[1] = molecular target: T1, human dopamine D2 receptor (Homo sapiens, UniProt P14416); conditions: 0.7 nM ^3 H-raclopride; transfected COS-7 cells
Protocol: Expression and Transfection. […] COS-7 cells were plated at a density of 1×10^6 cells/10 cm dish.
(§1) Radioligand binding. Cells were scraped 48-72 hours after transfection into 10 ml of PBS/10 cm dish and pelleted at 1000× g. Cells were resuspended in 10 mM Tris, 1 mM EDTA, 5 mM MgCl2 and homogenized with a polytron (Brinkman). A total particulate fraction was prepared by centrifugation at 45,000× g for 15 min. […] Reactions were initiated by addition of 0.4 ml of tissue in binding buffer to 0.1 ml of drugs. […] Reactions were terminated by filtering membranes through Whatman GFC filters using a cell harvester (Brandel). Data were analyzed by nonlinear regression on a VAX II computer using the program DATAPLOT (distributed by the National Technical Information Service).

[2] = molecular target: T1, human dopamine D2 receptor; assay: Saturation radioligand binding to membranes of transfected COS-7 cells; parameters: rescreened with the S1 probe alone to identify those most likely to be full length; expressed in transfected cells; host or cells: COS-7 cells (transient, 16A-pCD-PS DNA)
Protocol: COS-7 cells were plated at a density of 1×10^6 cells/10 cm dish. One to two days after plating, cells were transfected with 16A-pCD-PS DNA using a modification of the calcium phosphate precipitation procedure.
as §1

T1 sequence (P14416 1-414 isoform P14416-2): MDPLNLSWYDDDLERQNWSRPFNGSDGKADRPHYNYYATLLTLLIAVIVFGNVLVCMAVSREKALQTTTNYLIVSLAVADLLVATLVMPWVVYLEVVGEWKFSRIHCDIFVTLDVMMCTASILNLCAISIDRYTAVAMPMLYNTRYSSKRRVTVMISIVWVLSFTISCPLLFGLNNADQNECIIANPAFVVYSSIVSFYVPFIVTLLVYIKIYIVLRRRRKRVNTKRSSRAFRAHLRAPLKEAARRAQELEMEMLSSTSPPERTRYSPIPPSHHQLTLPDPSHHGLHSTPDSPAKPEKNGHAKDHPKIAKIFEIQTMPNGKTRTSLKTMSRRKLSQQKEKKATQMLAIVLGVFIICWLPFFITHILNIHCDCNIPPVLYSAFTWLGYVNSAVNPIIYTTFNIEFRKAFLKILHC

CCN1CCC[C@@H]1CNC(=O)c1cc(S(N)(=O)=O)ccc1OC [(+)sulphride]
n (hill number) [1]: 1.0 ± 0.1

CCN1CCC[C@H]1CNC(=O)c1cc(S(N)(=O)=O)ccc1OC [(-)sulphride]
n (hill number) [1]: 1.2 ± 0.2

CCN1CCC[C@H]1CNC(=O)c1c(O)c(Cl)cc(Cl)c1OC [^3 H-raclopride]
maximum number of binding sites ([2]; COS-7 transfected with 16A-pCD-PS): 800±110 fmole/mg protein

CN1CCc2cccc3c2[C@H]1Cc1ccc(O)c(O)c1-3 [apomorphine]
n (hill number) [1]: 1.0 ± 0.1

CN(C)CCCN1c2ccccc2Sc2ccc(Cl)cc21 [chlorpromazine]
n (hill number) [1]: 0.9 ± 0.1

NCCc1ccc(O)c(O)c1 [dopamine]
n (hill number) [1]: 1.1 ± 0.1

^3 H-SCH23396
displacable binding to transfected COS-7 cells ([2]; concentrations up to 5 nM, displaced by chlorpromazine): did not show significant displacable binding
